Bounds are passed on as bounds.

The conditions of data set [1]: octanol/water.
The nature of the next data set: clinical. Conditions: human, in vivo, po, F.
Data set [2] in a line: Partition coefficient (logD6.5). The data set is classed as physicochemical. The note with it: octanol/water, pH 6.5.
For data set [3] the following is noted: human, in vivo, po.
For data set [4] the following is noted: octanol/water. The source holds these as a separate data set.
For data set [5] the following is noted: octanol/water. This is another data set of the same source.
A further data set in a line: physchem. Conditions: octanol/water, pH 6.5, logD.
The nature of data set [6]: Oral bioavailability in human. The note with it: in vivo. Format: ADME, organism-based.

`CO/C(O)=C1\C(C)=NC(C)=C(C(=O)OC(C)C)C1c1cccc2nonc12` (centres undefined): the “delta logD” value in data set [1] is given as 0. Moreover, in “clinical”, the bioavailability was ≤ 20%. The pH-dependent lipophilicity (logD) in data set [2] was found to be 1.72.
As for `Nc1ccn([C@H]2CC[C@@H](CO)O2)c(=O)n1` (stereo in doubt; 1) [ZALCITABINE], the F in data set [3] is recorded as < 20%. This compound registered a logD in data set [4] of 3.2.
As for `Nc1ccn([C@H]2CC[C@@H](CO)O2)c(=O)n1` (stereo in doubt; 232) [ZALCITABINE], in data set [3], the F is recorded as > 80%. Moreover, the “delta logD” value in data set [5] is reported as 0.
The compound `O=C1C(O)=C([C@H]2CC[C@H](c3ccc(Cl)cc3)CC2)C(=O)c2ccccc21` [ATOVAQUONE] had a logD in “physchem” of 3.96. This compound also registered a bioavailability in data set [6] of 49%.

These data come from ChEMBL document CHEMBL1133765, “QSAR model for drug human oral bioavailability” (J Med Chem, 2000).
